Test results as given in patent US11000033B2, “Ketone or oxime compound, and herbicide” (NISSAN CHEMICAL CORPORATION, priority 2014, dated 2021).

How the values were obtained:
Assay type in all cases: in vivo
[1] = tested on: Echinochloa crus-galli var. crus-galli; assay: Test Example 3: herbicidal effect by foliage application, Wagner pot (symbol H); settings: application herbicide amount 320 g/ha
How it was run: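 Foliar spray of water-diluted emulsion formulation at a predetermined herbicide amount onto 14-day-old plants in flooded alluvial soil (water depth 0.1–0.5 cm), greenhouse 25–30 °C; rice sown alongside. Scored 3 wk post-application on set criteria.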

[2] = tested on: directly sowed rice plant; assay: Test Example 3: effect on crop by foliage application, Wagner pot (symbol b); settings: application herbicide amount 320 g/ha
How it was run: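 Steps: fill a 1/10000-are Wagner pot with alluvial soil; add water and mix to submerge at 0.1–0.5 cm depth; sow rice plus Echinochloa crus-galli var. crus-galli, Leptochloa chinensis and Cyperus difformis; grow in a 25–30 °C greenhouse.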

Setaria viridis = assay: Test Example 4: herbicidal effect by soil treatment (symbol G)
How it was run: (§1)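 Seeds were sown in sterilized diluvial soil, covered with about 1.5 cm of soil, and the soil surface was sprayed with a water-diluted emulsion of the compound at a predetermined rate. Plants grew in a greenhouse at 25° C. to 30° C.; effects were scored visually 3 weeks after application.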

Apera spica-venti [3] = assay: Test Example 4: herbicidal effect by soil treatment (symbol L)
How it was run: as §1

Stellaria media [4] = assay: Test Example 4: herbicidal effect by soil treatment (symbol P)
How it was run: as §1

soybean = assay: Test Example 4: effect on crop by soil treatment (symbol d)
How it was run: (§2)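 The test used sterilized diluvial soil. Seed was set down in spots and overlaid with about 1.5 cm of soil before growth in a greenhouse kept at 25° C. to 30° C.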

wheat = assay: Test Example 4: effect on crop by soil treatment (symbol e)
How it was run: as §2

rapeseed = assay: Test Example 4: effect on crop by soil treatment (symbol g)
How it was run: as §2

Digitaria ciliaris = assay: Test Example 5: herbicidal effect by foliage application, plastic box (symbol F); settings: 320 g/ha, 3 weeks after application
How it was run: (§3)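 Sowing in sterilized diluvial soil, 14 days' greenhouse growth at 25° C. to 30° C., then uniform small-sprayer foliar application of aqueous emulsion dilution; plants scored three weeks afterwards.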

Avena fatua = assay: Test Example 5: herbicidal effect by foliage application, plastic box (symbol I); settings: 320 g/ha, 3 weeks after application
How it was run: as §3

Alopecurus myosuroides = assay: Test Example 5: herbicidal effect by foliage application, plastic box (symbol J); settings: 320 g/ha, 3 weeks after application
How it was run: as §3

Lolium multiflorum Lam. = assay: Test Example 5: herbicidal effect by foliage application, plastic box (symbol K); settings: 320 g/ha, 3 weeks after application
How it was run: as §3

Apera spica-venti [5] = assay: Test Example 5: herbicidal effect by foliage application, plastic box (symbol L); settings: 320 g/ha, 3 weeks after application
How it was run: as §3

Chenopodium album = assay: Test Example 5: herbicidal effect by foliage application, plastic box (symbol O); settings: 320 g/ha, 3 weeks after application
How it was run: as §3

Stellaria media [6] = assay: Test Example 5: herbicidal effect by foliage application, plastic box (symbol P); settings: 320 g/ha, 3 weeks after application
How it was run: as §3

corn = assay: Test Example 5: effect on crop by foliage application, plastic box (symbol c); settings: 320 g/ha, 3 weeks after application
How it was run: (§4)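 Sterilized diluvial soil, plastic box (21 × 13 × 7 cm); spot sowing, ~1.5 cm soil cover; greenhouse 25–30° C.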

rice plant = assay: Test Example 5: effect on crop by foliage application, plastic box (symbol b); settings: 320 g/ha, 3 weeks after application
How it was run: as §4

[7] = application herbicide amount 320 g/ha

| SMILES | herbicidal effect on H (Echinochloa crus-galli var. crus-galli), grade 0-5 [1] | effect on crop b (directly sowed rice plant), grade 0-5 [2] | G (Setaria viridis) herbicidal effect grade (Setaria viridis; [7]) | L (Apera spica-venti) herbicidal effect grade (Apera spica-venti [3]; [7]) | P (Stellaria media) herbicidal effect grade (Stellaria media [4]; [7]) | d (soybean) effect on crop grade (soybean; [7]) | e (wheat) effect on crop grade (wheat; [7]) | g (rapeseed) effect on crop grade (rapeseed; [7]) | F: Digitaria ciliaris, herbicidal effect grade (Digitaria ciliaris) | I: Avena fatua, herbicidal effect grade (Avena fatua) | J: Alopecurus myosuroides, herbicidal effect grade (Alopecurus myosuroides) | K: Lolium multiflorum Lam., herbicidal effect grade (Lolium multiflorum Lam.) | L: Apera spica-venti, herbicidal effect grade (Apera spica-venti [5]) | O: Chenopodium album, herbicidal effect grade (Chenopodium album) | P: Stellaria media, herbicidal effect grade (Stellaria media [6]) | c: corn, effect on crop grade (corn) | b: directly sowed rice plant, effect on crop grade (rice plant) | also measured |
| --- | --- | --- | --- | --- | --- | --- | --- | --- | --- | --- | --- | --- | --- | --- | --- | --- | --- | --- |
| CON=C(C)CC1CC(OC(=O)C(C)Cl)=C(c2c(C)cc(C)cc2C)C1=O (centres unmarked) [1-042] | 5 (Herbicidal ratio of 90% or more (almost completely withered)) | 5 (Herbicidal ratio of 90% or more (almost completely withered)) | 5 (Herbicidal ratio of 90% or more (almost completely withered)) | 5 (Herbicidal ratio of 90% or more (almost completely withered)) | 0 (Herbicidal ratio of 5% or lower (almost no effect)) | 0 (Herbicidal ratio of 5% or lower (almost no effect)) | 1 (Herbicidal ratio of 5% or higher and lower than 20%) | 4 (Herbicidal ratio of 70% or higher and lower than 90%) | 5 (Herbicidal ratio of 90% or more (almost completely withered)) | 5 (Herbicidal ratio of 90% or more (almost completely withered)) | 5 (Herbicidal ratio of 90% or more (almost completely withered)) | 5 (Herbicidal ratio of 90% or more (almost completely withered)) | 5 (Herbicidal ratio of 90% or more (almost completely withered)) | 0 (Herbicidal ratio of 5% or lower (almost no effect)) | 0 (Herbicidal ratio of 5% or lower (almost no effect)) | 4 (Herbicidal ratio of 70% or higher and lower than 90%) | 5 (Herbicidal ratio of 90% or more (almost completely withered)) | – |
| CON=CCC1CC(O)=C(c2c(C)cc(C)cc2C)C1=O (centres unmarked) [1-050] | 5 (Herbicidal ratio of 90% or more (almost completely withered)) | 5 (Herbicidal ratio of 90% or more (almost completely withered)) | 4 (Herbicidal ratio of 70% or higher and lower than 90%) | 0 (Herbicidal ratio of 5% or lower (almost no effect)) | 0 (Herbicidal ratio of 5% or lower (almost no effect)) | 0 (Herbicidal ratio of 5% or lower (almost no effect)) | 0 (Herbicidal ratio of 5% or lower (almost no effect)) | 0 (Herbicidal ratio of 5% or lower (almost no effect)) | 3 (Herbicidal ratio of 40% or higher and lower than 70%) | 3 (Herbicidal ratio of 40% or higher and lower than 70%) | 4 (Herbicidal ratio of 70% or higher and lower than 90%) | 5 (Herbicidal ratio of 90% or more (almost completely withered)) | 3 (Herbicidal ratio of 40% or higher and lower than 70%) | 0 (Herbicidal ratio of 5% or lower (almost no effect)) | 0 (Herbicidal ratio of 5% or lower (almost no effect)) | 0 (Herbicidal ratio of 5% or lower (almost no effect)) | 5 (Herbicidal ratio of 90% or more (almost completely withered)) | – |
| CON=C(C)CC1CC(OC(=O)C2=CCCC2)=C(c2c(C)cc(C)cc2C)C1=O (centres unmarked) [1-088] | 5 (Herbicidal ratio of 90% or more (almost completely withered)) | 5 (Herbicidal ratio of 90% or more (almost completely withered)) | – | – | – | – | – | – | – | – | – | – | – | – | – | – | – | G: Setaria viridis, herbicidal effect grade (Setaria viridis; 320 g/ha): 5 (Herbicidal ratio of 90% or more (almost completely withered)); L: Apera spica-venti, herbicidal effect grade (Apera spica-venti [3]; 320 g/ha): 5 (Herbicidal ratio of 90% or more (almost completely withered)); P: Stellaria media, herbicidal effect grade (Stellaria media [4]; 320 g/ha): 0 (Herbicidal ratio of 5% or lower (almost no effect)); d: soybean, effect grade on crop (soybean; 320 g/ha): 0 (Herbicidal ratio of 5% or lower (almost no effect)); e: wheat, effect grade on crop (wheat; 320 g/ha): 3 (Herbicidal ratio of 40% or higher and lower than 70%); g: rapeseed, effect grade on crop (rapeseed; 320 g/ha): 4 (Herbicidal ratio of 70% or higher and lower than 90%); F: Digitaria ciliaris, herbicidal effect (criteria 0-5) (Digitaria ciliaris): 5 (Herbicidal ratio of 90% or more (almost completely withered)); I: Avena fatua, herbicidal effect (criteria 0-5) (Avena fatua): 5 (Herbicidal ratio of 90% or more (almost completely withered)); J: Alopecurus myosuroides, herbicidal effect (criteria 0-5) (Alopecurus myosuroides): 5 (Herbicidal ratio of 90% or more (almost completely withered)); K: Lolium multiflorum Lam., herbicidal effect (criteria 0-5) (Lolium multiflorum Lam.): 5 (Herbicidal ratio of 90% or more (almost completely withered)); L: Apera spica-venti, herbicidal effect (criteria 0-5) (Apera spica-venti [5]): 5 (Herbicidal ratio of 90% or more (almost completely withered)); O: Chenopodium album, herbicidal effect (criteria 0-5) (Chenopodium album): 2 (Herbicidal ratio of 20% or higher and lower than 40%); P: Stellaria media, herbicidal effect (criteria 0-5) (Stellaria media [6]): 3 (Herbicidal ratio of 40% or higher and lower than 70%); c: corn, effect on crop (criteria 0-5) (corn): 5 (Herbicidal ratio of 90% or more (almost completely withered)); b: directly sowed rice plant, effect on crop (criteria 0-5) (rice plant): 5 (Herbicidal ratio of 90% or more (almost completely withered)) |
| CON=C(CC1CC(O)=C(c2c(C)cc(-n3cc(Cl)cn3)cc2C)C1=O)C(C)C (centres unmarked) [9-004] | – | – | – | – | – | – | – | – | 5 (Herbicidal ratio of 90% or more (almost completely withered)) | 5 (Herbicidal ratio of 90% or more (almost completely withered)) | 5 (Herbicidal ratio of 90% or more (almost completely withered)) | 5 (Herbicidal ratio of 90% or more (almost completely withered)) | 4 (Herbicidal ratio of 70% or higher and lower than 90%) | 1 (Herbicidal ratio of 5% or higher and lower than 20%) | 2 (Herbicidal ratio of 20% or higher and lower than 40%) | 5 (Herbicidal ratio of 90% or more (almost completely withered)) | – | H (Echinochloa crus-galli var. crus-galli) herbicidal effect grade ([1]; Table 24): 5 (Herbicidal ratio of 90% or more (almost completely withered)); b (directly sowed rice plant) effect on crop grade ([2]; Table 24): 5 (Herbicidal ratio of 90% or more (almost completely withered)); Herbicidal effect grade, G: Setaria viridis (Setaria viridis; [7]): 5 (Herbicidal ratio of 90% or more (almost completely withered)); Herbicidal effect grade, L: Apera spica-venti (Apera spica-venti [3]; [7]): 5 (Herbicidal ratio of 90% or more (almost completely withered)); Herbicidal effect grade, P: Stellaria media (Stellaria media [4]; [7]): 0 (Herbicidal ratio of 5% or lower (almost no effect)); Effect on crop grade, d: soybean (soybean; [7]): 0 (Herbicidal ratio of 5% or lower (almost no effect)); Effect on crop grade, e: wheat (wheat; [7]): 0 (Herbicidal ratio of 5% or lower (almost no effect)); Effect on crop grade, g: rapeseed (rapeseed; [7]): 0 (Herbicidal ratio of 5% or lower (almost no effect)) |
| COCCOC1=C(c2c(C)cc(C)cc2C)C(=O)C(CC(C)=NOC)C1 (centres unmarked) [1-037] | 0 (Herbicidal ratio of 5% or lower (almost no effect)) | 0 (Herbicidal ratio of 5% or lower (almost no effect)) | 0 (Herbicidal ratio of 5% or lower (almost no effect)) | 0 (Herbicidal ratio of 5% or lower (almost no effect)) | 0 (Herbicidal ratio of 5% or lower (almost no effect)) | 0 (Herbicidal ratio of 5% or lower (almost no effect)) | 0 (Herbicidal ratio of 5% or lower (almost no effect)) | 0 (Herbicidal ratio of 5% or lower (almost no effect)) | 0 (Herbicidal ratio of 5% or lower (almost no effect)) | 0 (Herbicidal ratio of 5% or lower (almost no effect)) | 0 (Herbicidal ratio of 5% or lower (almost no effect)) | 0 (Herbicidal ratio of 5% or lower (almost no effect)) | 0 (Herbicidal ratio of 5% or lower (almost no effect)) | 0 (Herbicidal ratio of 5% or lower (almost no effect)) | – | 0 (Herbicidal ratio of 5% or lower (almost no effect)) | 0 (Herbicidal ratio of 5% or lower (almost no effect)) | – |
